Reference: patent US6369260B1, “Process for the preparation of a pharmacologically active chemical combination” (Laboratori Alchemica S.r.l., priority 1994, dated 2002)
Where two headings read alike, the source gives them in different places.

Experiments:
[1] = gastrointestinal tolerability following intraperitoneal administration; assay type: in vivo
Text: In addition, the gastrointestinal tolerability was examined in (CCCCV), as compared to the native agent.

[2] = plasmatic concentration after oral administration in the rats; conditions: for native products found in plasma: since the first hours of administration; for time of plasmatic elimination half-life versus native compounds: sometimes even by 300% higher
[3] = test system: Mycobacterium butyricum induced paw volume increase; assay: anti-arthritic activity, standard adjuvant arthritis method; assay type: in vivo; conditions: intraperitoneal, rat
Experimental: The anti-arthritic activity of (CCCCV) was determined in the rat, according to the standard adjuvant arthritis method, consisting in the injection of a suspension killed Mycobacterium butyricum in mineral oil in the right hind paw under light ether anesthesia. The volume of the left hindpaw was measured by plethysmography.

[4] = rat, in vivo, po
rat = assay type: in vivo
Experimental: The gastrointestinal tolerability was evaluated by oral administration in the rat.

[5] = test system: collagen-stimulated platelets; assay: platelet anti-aggregating activity in vivo; conditions: power ratio related to the basic product taken as unit standard; oral administration
Experimental: The platelet anti-aggregating activity was evaluated in vivo on the collagen-stimulated platelets, according to the method described by PINON, J.Pharmacol.Methods 12,79 (1984); the gastrointestinal tolerability was evaluated by oral administration in the rat.
The results are shown in Table 2, which summarizes the study of the antithrombotic properties of said products (III), (XIII) (XVII) and (XVIII) after their oral administration.

carrageen edema = assay: anti-inflammatory activity, carrageen edema method; assay type: in vivo; conditions: power ratio related to the basic product taken as unit standard; oral administration, rat
Experimental: The anti-inflammatory activity was determined according to the method of carrageen edema, as described by WINTER et al. Proc.Soc.Exp.Biol.Med. 111,544 (1962), in the rat.
The results are shown in Table 1, which summarizes the study of the anti-inflammatory properties of the compounds under examination after oral administration.

[6] = Table 2, relative to Aspirin = 1, oral administration
[7] = Table 1, power ratio related to the basic product taken as unit standard, oral administration

SMILES: C[C@]12CCC(=O)C=C1CC[C@@H]1[C@@H]2[C@@H](O)C[C@@]2(C)[C@H]1CC[C@]2(O)C(=O)COC(=O)CCCCCCCC(=O)OCC(=O)[C@]1(O)CC[C@@H]2[C@H]3CCC4=CC(=O)CC[C@@]4(C)[C@@H]3[C@H](O)C[C@]21C [(CCCCV), di(21-hydrocortisone)azelate]
- gastrointestinal tolerability compared to the native agent [1]: significantly better tolerated than the parent compound
- native products found in plasma [2]: significant quantities of the native products were found
- anti-arthritic potency relative to parent compound [3]: comparable with the parent compound
- duration of pharmacological activity relative to parent compound [3]: greater duration
- inhibition of Mycobacterium butyricum induced paw volume increase ([3]; suspended in carboxymethylcellulose 0.5-2%): effective in inhibiting significantly
- time of plasmatic elimination half-life versus native compounds [4]: significantly higher

SMILES: CC(=O)Oc1ccccc1C(=O)OCCCCCCOC(=O)c1ccccc1OC(C)=O [(III), 1.6-hexandiol bis-acetylsalicylate]
- GASTROINT. TOLERABIL. (rat; [6]): 0.1
- PLATELET ANTI-AGGREGATING ACTIVITY [5]: 0.8

SMILES: CC(C(=O)OCCCCOC(=O)C(C)c1ccc(-c2ccccc2)c(F)c1)c1ccc(-c2ccccc2)c(F)c1 (centres unmarked) [(IX)]
- native products found in plasma [2]: significant quantities of the native products were found
- time of plasmatic elimination half-life versus native compounds [2]: significantly higher
- GASTROINT. TOLERABILITY (rat; [7]): 0.3

SMILES: CC(C(=O)OCCCCOC(=O)C(C)c1cccc(C(=O)c2ccccc2)c1)c1cccc(C(=O)c2ccccc2)c1 (centres unmarked) [(VII), 1,4-butandiole bis-2-[(3-benzoyl)phenyl]propionate]
- GASTROINT. TOLERABILITY (rat; [7]): 0.3
- ANTIEDEMIGENIC ACTIVITY (carrageen edema): 0.9

SMILES: O=C(Cc1ccccc1Nc1c(Cl)cccc1Cl)OCCCCOC(=O)Cc1ccccc1Nc1c(Cl)cccc1Cl [(X)]
- GASTROINT. TOLERABILITY (rat; [7]): 0.1

SMILES: CS(=O)(=O)N(C(=O)CCC(=O)N(c1ccc([N+](=O)[O-])cc1Oc1ccccc1)S(C)(=O)=O)c1ccc([N+](=O)[O-])cc1Oc1ccccc1 [(XI), bis-(N-[(2-phenoxy-4-nitro)phenyl]-N′-methansulfonyl)succinamide]
- native products found in plasma [2]: significant quantities of the native products were found
- time of plasmatic elimination half-life versus native compounds [2]: significantly higher
- GASTROINT. TOLERABILITY (rat; [7]): 0.8

SMILES: CC(=O)Oc1ccccc1C(=O)OCCCCOC(=O)c1ccccc1OC(C)=O [(XIII), 1,4-buthanediol bis-acetylsalycylate]
- GASTROINT. TOLERABIL. (rat; [6]): 0.1
- PLATELET ANTI-AGGREGATING ACTIVITY [5]: 0.8

SMILES: CC(=O)Oc1ccccc1C(=O)O [Aspirin, reference compound]
- GASTROINT. TOLERABIL. (rat; in vivo, po): 1
- PLATELET ANTI-AGGREGATING ACTIVITY [5]: 1

SMILES: O=C(O)Cc1ccccc1Nc1c(Cl)cccc1Cl [Diclofenac, reference compound]
- GASTROINT. TOLERABILITY (rat; [7]): 1

SMILES: CC(C(=O)O)c1ccc(-c2ccccc2)c(F)c1 (centres unmarked) [Flurbiprofen, reference compound]
- GASTROINT. TOLERABILITY (rat; in vivo, po): 1

SMILES: CC(C(=O)O)c1cccc(C(=O)c2ccccc2)c1 (centres unmarked) [Ketoprofen, reference compound]
- GASTROINT. TOLERABILITY (rat; [7]): 1

SMILES: COc1ccc2cc([C@H](C)C(=O)O)ccc2c1 [Naproxen, reference compound]
- GASTROINT. TOLERABILITY (rat; in vivo, po): 1

SMILES: CS(=O)(=O)Nc1ccc([N+](=O)[O-])cc1Oc1ccccc1 [Nimesulide, reference compound]
- GASTROINT. TOLERABILITY (rat; [7]): 1
